The test system of one series is wild type CEM T cells. It counts as in vitro ADME, human. Here is the method: Extracts of wild type CEM cells that had been incubated with 3 uM [8-^3 H]-2-chloro-2',3'-dideoxyadenosine for 4 hours were fractionated by ion exchange high performance liquid chromatography (HPLC). Detected radioactive peaks corresponded to the free deoxynucleoside and to the 5'-mono-, di- and tri-phosphates, respectively. The total intracellular 2-chloro-2',3'-dideoxynucleotide content was 30 pmols/10^8 cells. The identity of the peaks was confirmed by enzymatic dephosphorylation, and reverse phase HPLC in the presence of authentic 2-chloro-2',3'-dideoxyadenosine.
(§1) ^1 Human CEM T cells, or variants deficient in either deoxycytidine
(§2) kinase, or deoxycytidine kinase plus adenosine kinase, were incubated at
(§3) density of 5 × 10^7 cells/ml in medium containing 3 uM [8^3
(§4) H2-chloro-2',3dideoxyadenosine. After 4 hours, the nucleotides in the
(§5) methanolsoluble extracts were determined after separation by HPLC, as
(§6) described in the Materials and Methods.
(§7) The human T lymphoblastoid cell line, CCRF-CEM, and mutants deficient in either deoxycytidine kinase (clone AraC-8D), or deoxycytidine kinase plus adenosine kinase (clone AraC-8DM10-5) were obtained and propagated as described previously [Foley et al., (1965) Cancer, 18:552-529 and Hershfield et al., (1982) J. Biol. Chem., 257:6380-6386]. For metabolic studies, the cells were cultured in RPMI 1640 medium supplemented with 2 mM L-glutamine and 10 percent fetal bovine serum at a density of 2×10^7 cells/ml in the presence of radiolabelled dideoxynucleosides, as indicated earlier. Some cultures were pre-incubatedfor 30 minutes either with 5 uM 2'-deoxycoformycin or 50 uM coformycin. After 4 hours of incubation the cells were harvested by centrifugation.
(§8) The cell pellets were washed with Hank's balanced salt solution at 4 degrees C., and extracted with 1 ml 60 percent methanol/water at -20 degrees C. for 10 minutes. Initial studies included 2',3'-dideoxyadenosine5'-triphosphate as an internal recovery marker. The nucleotides were fractionated by high performance liquid chromatography on an Whatman Partisil-10 SAX column, applying a gradient of zero to 100 percent buffer B in buffer A. Buffer A was 7 mM potassium phosphate pH 3.4. Buffer B was 0.5 M potassium phosphate, pH 3.4, one M KCl. The flow rate was 1.5 ml/minute, 1 minute fractions were collected. Buffer A was used alone for the first ten fractions after which elution with Buffer B began and was continued through fraction thirty, after which the eluting buffer was completely Buffer B. The nucleoside was eluted by about fraction six. The monophosphate eluted between about fractions fifteen and eighteen, the diphosphate between about fractions twenty-seven and thirty-two, and the triphosphate eluted between about fractions fifty-one and about sixty-five.

In series [1] the test system is deoxycytidine kinase deficient CEM T cells (clone AraC-8D). The series is classed as in vitro ADME, human. The method, then:
as §1, §2, §3, §4, §5, §6, §7, §8

Series [2] deals with HIV (strain LAV) in MT-2 cells. As to the kind of experiment: HIV-induced syncytia formation and cytopathic effect in MT-2 T lymphoblasts. It counts as cell-based. An excerpt: The anti-HIV activities of the 2-halo-2',3'-dideoxyadenosine derivatives were first assayed in human MT-2 T lymphoblasts, as this system readily permitted a differentiation between anti-retroviral and anti-proliferativeeffects Exposure of the MT-2 T cell line to cell-free HIV led to the formation of syncytia within 4-5 days, and to a parallel decline in cell viability.
The MT-2 human lstoid cell line, which carries the human T cell leukemia virus type I (HTLV-1) genome, was used to assess the cytopathic effects of HIV, and the protective effects of the various nucleosides. […] The formation of syncytia, with resultant cell death, depends upon the expression on the cell-surface of the HIV envelope glycoproteins gp160, gp120, and gp4l, by cells that bear the differentiation antigen CD4 (T4) [Lipson et al., (1986) Nature, 323:725-728].
In the reported studies, the formation of syncytia in the MT-2 cell line (provided by J. Riggs and M. Aschen, State Department of Public Health, Berkelye, CA) was a sensitive and reproducible system to follow both the course of HIV infection and the potential cytotoxic effects of the added nucleosides. HIV (strain LAV) maintained in CEM cell culture was obtained from F. Barre-Sinoussi, J. C. Chermann and L. Montagnier (Institute Pasteur, Paris).
Cell-free virus was prepared by mixing LAV-infected CEM cells with two liters of 2×10^6 cells/ml of uninfected CEM cells at a ratio of 1:20 and incubating at 37 degrees C. for six days at which time, more than 80 percent of the cells expressed the p24 (gag) antigen using mouse monoclonal antibody M33, obtained from F. Vernoese di Marzo and M. Sarngadharan (Litton Bionetics, Rockville, Md.) using an enzyme immunofiltration staining method [Cleveland et al. (1987) J. Clin. Microbiol., 25:416-420]. The cells were centrifuged at 750×g for 10 minutes. The clarified supernatant was then titered by terminal dilution assay in 96 well microtiter plates containing 6×10^4 MT-2 cells per well suspended in a final volume of 200 ul RPMI 1640 medium containing 10 percent fetal bovine serum, 2 mM glutamine and […].
When HIV was added to this microtiter culture system at a multiplicity of infection of 0.1 TCID50 /cell, multinucleated giant cells appeared within 48 hours, and the majority of cells were fused in syncytia structures by day 4. The appearance of giant cells correlated with detectable antigens and RNA of HIV.
For measurement of antiviral activity, different concentrations of the assayed compounds were added to duplicate wells at the time of infection, and the cultures were incubated at 37 degrees C. After 4 and 5 days, the numbers of syncytia per culture were enumerated microscopically.
The results presented herein were confirmed in five separate experiments. Controls containing uninfected and infected cells with and without anti-retroviral nucleosides were included.
The results were expressed in semi-quantitative units that take into account the growth pattern of MT-2, and the ability of the HIV to cause both syncytia formation and cell death. In this unit system, 1 corresponds to 1-3 syncytia per well and no change in cell count compared to control cultures lacking virus; 2 corresponds to 3-10 syncytia per well and up to 20 percent cell death; 3 corresponds to 10-30 syncytia per well and a 20-70 percent drop in cell viability; 4 corresponds to more than 30 syncytia well and at least a 70 percent fall in the viable cell count.

[3] abbreviates: Deoxycytidine kinase deficient CEM, 3 uM, 4 hours.

The structures appear in SMILES notation.

Take `Nc1ncnc2c1ncn2[C@H]1CC[C@@H](CO)O1` [2',3'-dideoxyadenosine, reference compound]: the “2',3'-dideoxyadenosine uptake” value (in the series with wild type CEM T cells; in series [1]) was 20-30 pmols/10^8 cells throughout. Moreover, the “cytopathic effect of HIV / virus-induced cell killing” value in series [2] is “inhibit the cytopathic effect of HIV”.

Consider `Nc1nc(Cl)nc2c1ncn2[C@H]1CC[C@@H](CO)O1` [2-chloro-2',3'-dideoxyadenosine], for which the “intracellular dideoxynucleotide content after 4 hours” value in the series on wild type CEM T cells (CEM 2 × 10^7 cells/ml, 37 degrees C., 3 uM 2-Cl-ddA or 2 uM ddA) is on record as around 30 pmols/10^8 cells. For the same compound, in the series with wild type CEM T cells (Wild Type CEM, 3 uM, 4 hours), the “Nucleotide Formed, Diphosphate” value was found to be 2.8 pmols/10^8 cells/4 hrs; the “Nucleotide Formed, Triphosphate” value turned out to be 24.3 pmols/10^8 cells/4 hrs; the “total intracellular 2-chloro-2',3'-dideoxynucleotide content” value was 30 pmols/10^8 cells. For the same compound, the “Nucleotide Formed, Monophosphate” value in the series with wild type CEM T cells (Wild Type CEM, 3 uM, 4 hours, 5 × 10^7 cells/ml) was found to be 3.0 pmols/10^8 cells/4 hrs. In addition, in series [1] (setting [3]), the “Nucleotide Formed, Diphosphate” value was 0.8 pmols/10^8 cells/4 hrs; the “Nucleotide Formed, Monophosphate” value worked out at 1.7 pmols/10^8 cells/4 hrs; the “Nucleotide Formed, Triphosphate” value is recorded as 3.4 pmols/10^8 cells/4 hrs. The “accumulated phosphates relative to wild type CEM cells” value in series [1] (deoxycytidine kinase deficient CEM variant, same culture conditions) is on record as “about 20%”. Also, the HIV-induced syncytia formation entry in series [2] (10 uM) was “blocked syncytia formation”.

These data come from US4997926A, “Deaminase-stable anti-retroviral 2-halo-2',3'-dideoxy” (Scripps Clinic and Research Foundation, priority 1987, dated 1991).
